Test results published in US8936916B2, “Polypeptides for microbial detection” (3M Innovative Properties Company, priority 2008, dated 2015).
Ends that are not written are not given here. * marks the point of attachment. Myristoyl = CCCCCCCCCCCCCC(=O)*

Assay: Permeabilization of DPPC liposomes containing glucose oxidase by phosphorylated dermatoxin (absorbance at 538 nm)
Format: biochemical
Procedure: DPPC liposomes containing 5 mg/mL glucose oxidase were prepared as described in Example 2. Glucose oxidase activity was measured in a coupled enzyme reaction with horseradish peroxidase as described in Example 2. The various solutions were quickly added to each of the wells of a microplate using a multichannel pipette and the reactions were started (at T=0 hours) with the addition to the wells of a solution containing glucose and 4-AAP.
The ability of the phosphorylated dermatoxin to open liposomes in the presence of phosphatase was tested by preparing a developing solution as described in Example 2. One hundred-fifty microliters of the developing solution was placed in each well of a 96-well microplate. To each column in the plate was added 20 μL of TES buffer containing one of the following concentrations of unpurified dermatoxin: 3.3 mg/mL, 3.3×10^−1 mg/mL, 3.3×10^−2 mg/mL, 3.3×10^−3 mg/mL, 3.3×10^−4 mg/mL, 3.3×10^−5 mg/mL, 3.3×10^−6 mg/mL, or 3.3×10^−7 mg/mL. Negative control wells contained TES buffer with no dermatoxin. Positive control wells buffer contained TES buffer with Triton X-100. Ten-microliter aliquots of the following concentrations of DPPC liposomes (containing 5 mg/mL glucose oxidase) were added to wells in duplicate rows: 0.1 mg lipid/mL, 0.02 mg lipid/mL, 0.004 mg lipid/mL, or plain buffer. To one of the duplicate rows was added 20 μL of 2.5 mg/mL alkaline phosphatase in TES. The other duplicate row received 20 μL of TES buffer. Thus the final dermatoxin concentration in the well varied from […], and the final lipid concentration in the well ranged from 0.005 mg lipid/mL to 2.0×10^−4 mg lipid/mL.
The absorbance was recorded at 538 nm on a SpectraMax M5 plate reader (Molecular Devices, Sunnyvale, Calif.) after two hours incubation at room temperature, and also after overnight incubation (approximately 18 hours). Since the absorbance of several wells was saturated, the overnight samples were diluted 1:10 with 50 mmol TES and the absorbance of the diluted samples was measured.

SLGSFLKGVGTTLASVGKVVSDQFGKLLQAGQ (Myristoyl-SLGSFLKGVGTTLASVGKVVSDQFGKLLQAGQ; also: phosphorylated) [phosphorylated dermatoxin, fully phosphorylated dermatoxin, unpurified crude preparation]
Absorbance at 538 nm (cytolytic peptide activity) (18 hrs (d), 1:10-diluted sample, lipid conc. 0.004, dermatoxin mass 3.3 × 10^−9 mg, without phosphatase): 0.054 absorbance units | Absorbance at 538 nm (cytolytic peptide activity) (18 hrs (d), 1:10-diluted sample, lipid conc. 0.02, dermatoxin mass 3.3 × 10^−5 mg, with phosphatase): 0.262 absorbance units | Absorbance at 538 nm (cytolytic peptide activity) (18 hrs (d), 1:10-diluted sample, lipid conc. 0.02, dermatoxin mass 3.3 × 10^−5 mg, without phosphatase): 0.247 absorbance units | Absorbance at 538 nm (cytolytic peptide activity) (18 hrs (d), 1:10-diluted sample, lipid conc. 0.02, dermatoxin mass 3.3 × 10^−6 mg, with phosphatase): 0.231 absorbance units | Absorbance at 538 nm (cytolytic peptide activity) (18 hrs (d), 1:10-diluted sample, lipid conc. 0.02, dermatoxin mass 3.3 × 10^−6 mg, without phosphatase): 0.145 absorbance units | Absorbance at 538 nm (cytolytic peptide activity) (18 hrs (d), 1:10-diluted sample, lipid conc. 0.02, dermatoxin mass 3.3 × 10^−7 mg, with phosphatase): 0.084 absorbance units | Absorbance at 538 nm (cytolytic peptide activity) (18 hrs (d), 1:10-diluted sample, lipid conc. 0.02, dermatoxin mass 3.3 × 10^−7 mg, without phosphatase): 0.072 absorbance units | Absorbance at 538 nm (cytolytic peptide activity) (18 hrs (d), 1:10-diluted sample, lipid conc. 0.02, dermatoxin mass 3.3 × 10^−8 mg, with phosphatase): 0.075 absorbance units | Absorbance at 538 nm (cytolytic peptide activity) (18 hrs (d), 1:10-diluted sample, lipid conc. 0.02, dermatoxin mass 3.3 × 10^−8 mg, without phosphatase): 0.054 absorbance units | Absorbance at 538 nm (cytolytic peptide activity) (18 hrs (d), 1:10-diluted sample, lipid conc. 0.02, dermatoxin mass 3.3 × 10^−9 mg, with phosphatase): 0.072 absorbance units | Absorbance at 538 nm (cytolytic peptide activity) (18 hrs (d), 1:10-diluted sample, lipid conc. 0.02, dermatoxin mass 3.3 × 10^−9 mg, without phosphatase): 0.054 absorbance units | Absorbance at 538 nm (cytolytic peptide activity) (18 hrs (d), 1:10-diluted sample, lipid conc. 0.1, dermatoxin mass 3.3 × 10^−5 mg, with phosphatase): 1.045 absorbance units | Absorbance at 538 nm (cytolytic peptide activity) (18 hrs (d), 1:10-diluted sample, lipid conc. 0.1, dermatoxin mass 3.3 × 10^−5 mg, without phosphatase): 0.846 absorbance units | Absorbance at 538 nm (cytolytic peptide activity) (18 hrs (d), 1:10-diluted sample, lipid conc. 0.1, dermatoxin mass 3.3 × 10^−6 mg, with phosphatase): 0.785 absorbance units | Absorbance at 538 nm (cytolytic peptide activity) (18 hrs (d), 1:10-diluted sample, lipid conc. 0.1, dermatoxin mass 3.3 × 10^−6 mg, without phosphatase): 0.413 absorbance units | Absorbance at 538 nm (cytolytic peptide activity) (18 hrs (d), 1:10-diluted sample, lipid conc. 0.1, dermatoxin mass 3.3 × 10^−7 mg, with phosphatase): 0.095 absorbance units | Absorbance at 538 nm (cytolytic peptide activity) (18 hrs (d), 1:10-diluted sample, lipid conc. 0.1, dermatoxin mass 3.3 × 10^−7 mg, without phosphatase): 0.145 absorbance units | Absorbance at 538 nm (cytolytic peptide activity) (18 hrs (d), 1:10-diluted sample, lipid conc. 0.1, dermatoxin mass 3.3 × 10^−8 mg, with phosphatase): 0.076 absorbance units | Absorbance at 538 nm (cytolytic peptide activity) (18 hrs (d), 1:10-diluted sample, lipid conc. 0.1, dermatoxin mass 3.3 × 10^−8 mg, without phosphatase): 0.060 absorbance units | Absorbance at 538 nm (cytolytic peptide activity) (18 hrs (d), 1:10-diluted sample, lipid conc. 0.1, dermatoxin mass 3.3 × 10^−9 mg, with phosphatase): 0.075 absorbance units | Absorbance at 538 nm (cytolytic peptide activity) (18 hrs (d), 1:10-diluted sample, lipid conc. 0.1, dermatoxin mass 3.3 × 10^−9 mg, without phosphatase): 0.058 absorbance units | Absorbance at 538 nm (cytolytic peptide activity) (18 hrs, lipid conc. 0, dermatoxin mass 3.3 × 10^−5 mg, with phosphatase): 0.153 absorbance units | Absorbance at 538 nm (cytolytic peptide activity) (18 hrs, lipid conc. 0, dermatoxin mass 3.3 × 10^−5 mg, without phosphatase): 0.147 absorbance units | Absorbance at 538 nm (cytolytic peptide activity) (18 hrs, lipid conc. 0, dermatoxin mass 3.3 × 10^−6 mg, with phosphatase): 0.149 absorbance units | Absorbance at 538 nm (cytolytic peptide activity) (18 hrs, lipid conc. 0, dermatoxin mass 3.3 × 10^−6 mg, without phosphatase): 0.139 absorbance units | Absorbance at 538 nm (cytolytic peptide activity) (18 hrs, lipid conc. 0, dermatoxin mass 3.3 × 10^−7 mg, with phosphatase): 0.148 absorbance units | Absorbance at 538 nm (cytolytic peptide activity) (18 hrs, lipid conc. 0, dermatoxin mass 3.3 × 10^−7 mg, without phosphatase): 0.132 absorbance units | Absorbance at 538 nm (cytolytic peptide activity) (18 hrs, lipid conc. 0, dermatoxin mass 3.3 × 10^−8 mg, with phosphatase): 0.149 absorbance units | Absorbance at 538 nm (cytolytic peptide activity) (18 hrs, lipid conc. 0, dermatoxin mass 3.3 × 10^−8 mg, without phosphatase): 0.131 absorbance units | Absorbance at 538 nm (cytolytic peptide activity) (18 hrs, lipid conc. 0, dermatoxin mass 3.3 × 10^−9 mg, with phosphatase): 0.150 absorbance units | Absorbance at 538 nm (cytolytic peptide activity) (18 hrs, lipid conc. 0, dermatoxin mass 3.3 × 10^−9 mg, without phosphatase): 0.133 absorbance units | Absorbance at 538 nm (cytolytic peptide activity) (18 hrs, lipid conc. 0.004, dermatoxin mass 3.3 × 10^−5 mg, with phosphatase): 0.494 absorbance units | Absorbance at 538 nm (cytolytic peptide activity) (18 hrs, lipid conc. 0.004, dermatoxin mass 3.3 × 10^−5 mg, without phosphatase): 0.499 absorbance units | Absorbance at 538 nm (cytolytic peptide activity) (18 hrs, lipid conc. 0.004, dermatoxin mass 3.3 × 10^−6 mg, with phosphatase): 0.494 absorbance units | Absorbance at 538 nm (cytolytic peptide activity) (18 hrs, lipid conc. 0.004, dermatoxin mass 3.3 × 10^−6 mg, without phosphatase): 0.410 absorbance units | Absorbance at 538 nm (cytolytic peptide activity) (18 hrs, lipid conc. 0.004, dermatoxin mass 3.3 × 10^−7 mg, with phosphatase): 0.287 absorbance units | Absorbance at 538 nm (cytolytic peptide activity) (18 hrs, lipid conc. 0.004, dermatoxin mass 3.3 × 10^−7 mg, without phosphatase): 0.169 absorbance units | Absorbance at 538 nm (cytolytic peptide activity) (18 hrs, lipid conc. 0.004, dermatoxin mass 3.3 × 10^−8 mg, with phosphatase): 0.240 absorbance units | Absorbance at 538 nm (cytolytic peptide activity) (18 hrs, lipid conc. 0.004, dermatoxin mass 3.3 × 10^−8 mg, without phosphatase): 0.141 absorbance units | Absorbance at 538 nm (cytolytic peptide activity) (18 hrs, lipid conc. 0.004, dermatoxin mass 3.3 × 10^−9 mg, with phosphatase): 0.243 absorbance units | Absorbance at 538 nm (cytolytic peptide activity) (18 hrs, lipid conc. 0.004, dermatoxin mass 3.3 × 10^−9 mg, without phosphatase): 0.139 absorbance units | Absorbance at 538 nm (cytolytic peptide activity) (18 hrs, lipid conc. 0.02, dermatoxin mass 3.3 × 10^−5 mg, with phosphatase): 2.003 absorbance units | Absorbance at 538 nm (cytolytic peptide activity) (18 hrs, lipid conc. 0.02, dermatoxin mass 3.3 × 10^−5 mg, without phosphatase): 1.833 absorbance units | Absorbance at 538 nm (cytolytic peptide activity) (18 hrs, lipid conc. 0.02, dermatoxin mass 3.3 × 10^−6 mg, with phosphatase): 1.856 absorbance units | Absorbance at 538 nm (cytolytic peptide activity) (18 hrs, lipid conc. 0.02, dermatoxin mass 3.3 × 10^−6 mg, without phosphatase): 1.013 absorbance units | Absorbance at 538 nm (cytolytic peptide activity) (18 hrs, lipid conc. 0.02, dermatoxin mass 3.3 × 10^−7 mg, with phosphatase): 0.469 absorbance units | Absorbance at 538 nm (cytolytic peptide activity) (18 hrs, lipid conc. 0.02, dermatoxin mass 3.3 × 10^−7 mg, without phosphatase): 0.315 absorbance units | Absorbance at 538 nm (cytolytic peptide activity) (18 hrs, lipid conc. 0.02, dermatoxin mass 3.3 × 10^−8 mg, with phosphatase): 0.357 absorbance units | Absorbance at 538 nm (cytolytic peptide activity) (18 hrs, lipid conc. 0.02, dermatoxin mass 3.3 × 10^−8 mg, without phosphatase): 0.149 absorbance units | Absorbance at 538 nm (cytolytic peptide activity) (18 hrs, lipid conc. 0.02, dermatoxin mass 3.3 × 10^−9 mg, with phosphatase): 0.336 absorbance units | Absorbance at 538 nm (cytolytic peptide activity) (18 hrs, lipid conc. 0.02, dermatoxin mass 3.3 × 10^−9 mg, without phosphatase): 0.143 absorbance units | Absorbance at 538 nm (cytolytic peptide activity) (18 hrs, lipid conc. 0.1, dermatoxin mass 3.3 × 10^−5 mg, without phosphatase): 3.720 absorbance units | Absorbance at 538 nm (cytolytic peptide activity) (18 hrs, lipid conc. 0.1, dermatoxin mass 3.3 × 10^−6 mg, without phosphatase): 3.294 absorbance units | Absorbance at 538 nm (cytolytic peptide activity) (18 hrs, lipid conc. 0.1, dermatoxin mass 3.3 × 10^−7 mg, with phosphatase): 0.530 absorbance units | Absorbance at 538 nm (cytolytic peptide activity) (18 hrs, lipid conc. 0.1, dermatoxin mass 3.3 × 10^−7 mg, without phosphatase): 0.974 absorbance units | Absorbance at 538 nm (cytolytic peptide activity) (18 hrs, lipid conc. 0.1, dermatoxin mass 3.3 × 10^−8 mg, with phosphatase): 0.349 absorbance units | Absorbance at 538 nm (cytolytic peptide activity) (18 hrs, lipid conc. 0.1, dermatoxin mass 3.3 × 10^−8 mg, without phosphatase): 0.200 absorbance units | Absorbance at 538 nm (cytolytic peptide activity) (18 hrs, lipid conc. 0.1, dermatoxin mass 3.3 × 10^−9 mg, with phosphatase): 0.358 absorbance units | Absorbance at 538 nm (cytolytic peptide activity) (18 hrs, lipid conc. 0.1, dermatoxin mass 3.3 × 10^−9 mg, without phosphatase): 0.177 absorbance units | Permeabilization of the liposomes in the presence versus absence of phosphatase (all wells except the highest concentration of the crude preparation): more permeabilization
